In the RepoRT retention time repository (doi:10.1021/acs.analchem.2c02893):

Experiment: RP, Thermo Scientific Acclaim RSLC 120 C18, 100 × 2.1 mm, 2.2 µm, 30 °C, 0.2 mL/min, estimated dead time 1.1 min; A: 90% water + 10% methanol + 0.01% formic acid + 5 mM ammonium formate, pH 3.61; B: methanol + 0.01% formic acid + 5 mM ammonium formate, pH 3.61; gradient (min/%B) 0/1 1/1 2/39 13/99.9 15/99.9 15.1/1 20.1/1
Conditions: stereoisomer not certain

Structure (SMILES) | LC retention time [min]
CC1(C)C(C(=O)c2cn(CC3CCOCC3)c3ccccc23)C1(C)C [A-834.735] | 11.4
CCCSP(=O)(OCC)Oc1ccc(Br)cc1Cl (configuration not stated) [Profenophos] | 12
CCOP(=S)(OCC)Oc1ccc([N+](=O)[O-])cc1 [Parathion] | 10.7
COP(=S)(OC)Oc1cc(Cl)c(I)cc1Cl [Iodofenphos (Jodfenphos)] | 12.7
CCOP(=O)(OCC)Oc1ccc([N+](=O)[O-])cc1 [Paraoxon] | 8.01
CN1CSC(=S)N(C)C1 [Dazomet] | 3.97
CCOC(=O)C1CC(=O)C(=C(O)C2CC2)C(=O)C1 (configuration not stated) [Trinexapac-ethyl] | 8.45
COC=C(C(=O)O)c1ccccc1Oc1cc(Oc2ccccc2C#N)ncn1 [Azoxystrobin acid] | 8.18
COC1C(OC(N)=O)C(O)C(Oc2ccc3c(O)c(NC(=O)c4ccc(O)c(CC=C(C)C)c4)c(=O)oc3c2C)OC1(C)C (configuration not stated) [Novobiocin] | 11.2
CC(=O)Oc1ccc2c3c1OC1C(OC(C)=O)C=CC4C(C2)N(C)CCC341 (configuration not stated) [Heroin] | 4.63
Oc1ccc(C=Cc2cc(O)cc(O)c2)cc1 [Resveratrol] | 5.93
CC(C(=O)O)N(C(=O)c1ccccc1)c1ccc(F)c(Cl)c1 (configuration not stated) [Flamprop] | 8.6
CN(C)CC=C(c1ccc(Br)cc1)c1cccnc1 [Zimelidine] | 6.56
Cc1cccc(N(C)C(=S)Oc2ccc3ccccc3c2)c1 [Tolnaftate] | 12.2
CC(C)C(NC(=O)c1nn(CCCCCF)c2ccccc12)C(N)=O (configuration not stated) [AB-PINACA 5F] | 9.12
NC(N)=NC(=O)c1nc(Cl)c(N2CCCCCC2)nc1N [HMA] | 3.23
CCOP(=S)(Oc1ccc(C#N)cc1)c1ccccc1 (configuration not stated) [Cyanofenphos] | 10.9
CCC(C)c1ccccc1OC(=O)NC (configuration not stated) [Fenobucarb] | 9.05
CCOC(=O)C(C)OC(=O)c1cc(Oc2ccc(C(F)(F)F)cc2Cl)ccc1[N+](=O)[O-] (configuration not stated) [Lactofen] | 12.2
CC1(C)C(C(=O)c2cn(CCN3CCOCC3)c3ccccc23)C1(C)C [A-796.260] | 10.7
CC(Cc1ccccc1)NCCCCl (configuration not stated) [Mefenorex] | 5.31

Structure (SMILES) | LC retention time [min]
COC(=O)N(C(=O)N1COC2(C(=O)OC)Cc3cc(Cl)ccc3C2=N1)c1ccc(OC(F)(F)F)cc1 (configuration not stated) [Indoxacarb] | 11.6
CCN(CC)CCNC(=O)c1cc(S(C)(=O)=O)ccc1OC [Tiapride] | 3.41
CC(C)C1(C)N=C(c2nc3ccccc3cc2C(=O)O)NC1=O (configuration not stated) [Imazaquin] | 6.1
N#CCCCCn1cc(C(=O)c2cccc3ccccc23)c2ccccc21 [AM-2232] | 9.69
CN(C)C(=O)Nc1ccc(Cl)c(Cl)c1 [Diuron] | 8.64
CC(C)CCOc1ccc(NC(=S)Nc2ccc(OCCC(C)C)cc2)cc1 [Tiocarlide] | 13
CC(CN(C)C)CN1c2ccccc2CCc2ccccc21 (configuration not stated) [Trimipramine] | 8.31
CC1(C)C(C=C(Cl)C(F)(F)F)C1C(=O)OC(C#N)c1cccc(Oc2ccccc2)c1 (configuration not stated) [Cyhalothrin (lambda-)] | 13
CCC1OC(=O)C(C)C(OC2CC(C)(OC)C(O)C(C)O2)C(C)C(OC2OC(C)CC(N(C)C)C2O)C(C)(O)CC(C)CN(C)C(C)C(O)C1(C)O (configuration not stated) [Azithromycin] | 5.98
CN(C)NC(=O)CCC(=O)O [Daminozide] | 2.18
C[N+](C)([O-])CCCC1(c2ccc(F)cc2)OCc2cc(C#N)ccc21 (configuration not stated) [Citalopram N-oxide] | 7.1
CC(Cn1cnc2c(N)ncnc21)OCP(=O)(O)O (configuration not stated) [Tenofovir] | 2.69
CCCCCn1c(C)c(C(=O)c2cccc3ccccc23)c2ccccc21 [JWH-007] | 12.6
CC1(C)C(C(=O)c2cn(CCCC(F)(F)F)c3ccccc23)C1(C)C [XLR-12] | 12
O=C(OC1CC2CCC(C1)[N+]21CCCC1)C(O)(c1ccccc1)c1ccccc1 (configuration not stated) [Trospium] | 5.72
CC(C)C(C(=O)OC(C#N)c1cccc(Oc2ccccc2)c1)c1ccc(OC(F)F)cc1 (configuration not stated) [Flucythrinate] | 12.7
COc1ccc2[nH]cc(CCN(C(C)C)C(C)C)c2c1 [MeO-DIPT (5-)] | 4.81
Cc1cnc2c(C(=O)O)c(Cl)ccc2c1 [Quinmerac] | 4.75
CCOP(=O)(NC(C)C)Oc1ccc(SC)c(C)c1 (configuration not stated) [Fenamiphos] | 10.4
CC(C)(c1ccc(OCC(O)CO)cc1)c1ccc(OCC2CO2)cc1 (configuration not stated) [Bisphenol<U+00A0>A (2,3-dihydroxypropyl) glycidyl ether] | 9.52
CON=C(Cc1cccnc1)c1ccc(Cl)cc1Cl [Pyrifenox] | 10.1

Structure (SMILES) | LC retention time [min]
CCOC(=O)C(Cl)Cc1cc(-n2nc(C)n(C(F)F)c2=O)c(F)cc1Cl (configuration not stated) [Carfentrazone-ethyl] | 10.7
O=C(c1ccc(F)c2ccccc12)c1cn(CCCCCF)c2ccccc12 [JWH-412-5F. F2201] | 11.6
c1ccc2c(c1)Cc1cccnc1N1CCNCC21 (configuration not stated) [Mirtazapine-Desmethyl (normirtazapine)] | 5.31
CC(C(=O)O)c1cccc(C(=O)c2ccccc2)c1 (configuration not stated) [Ketoprofen] | 8.53
COc1nc(C)nc(NC(=O)NS(=O)(=O)c2ccccc2OCCCl)n1 [Triasulfuron] | 6.6
CCOC(=O)C1=C(COCCN)NC(C)=C(C(=O)OC)C1c1ccccc1Cl (configuration not stated) [Amlodipine] | 8.36
CC(C)N(C(=O)C(=O)O)c1ccccc1 [Propachlor-OXA] | 5.13
COc1cc(NC(C)CCCN)c2ncccc2c1 (configuration not stated) [Primaquine] | 6.82
O=C(O)C1C2CCC(O2)C1C(=O)O (configuration not stated) [Endothal] | 3.2
NC(=S)c1c(Cl)cccc1Cl [Chlorothiamide] | 5.69
CCC(C)C(=O)OC1CC(O)C=C2C=CC(C)C(CCC(O)CC(O)CC(=O)O)C21 (configuration not stated) [Pravastatin] | 8.36
Cc1nn(C)c(OCC(=O)c2ccccc2)c1C(=O)c1ccc(Cl)cc1Cl [Pyrazoxyfen] | 10.9
O=C(O)Cc1cccc2ccccc12 [Naphthylacetic acid (1-)] | 7.76
NC(N)=Nc1nc(CSCCC(N)=NS(N)(=O)=O)cs1 [Famotidine] | 3.24
COc1cc(CC(C)N)c(OC)cc1C (configuration not stated) [DOM (2.5-Dimethoxy-4-methylamphetamine)] | 5.83
Cc1ccccc1N1C(=O)c2cc(S(N)(=O)=O)c(Cl)cc2NC1C (configuration not stated) [Metolazone] | 6.08
CC=C1CC(C)C(O)(CO)C(=O)OCC2=CC[N+]3([O-])CCC(OC1=O)C23 (configuration not stated) [Retrorsine-N-oxide] | 4.33
CCCc1nc(C)c2c(=O)[nH]c(-c3cc(S(=O)(=O)N4CCN(CCO)CC4)ccc3OCC)nn12 [Vardenafil-Hydroxy] | 8.05
O=C(O)CCCCC1SCC2NC(=O)NC21 (configuration not stated) [Biotin] | 4.44
CCCC(C(=O)c1ccc2c(c1)OCO2)N1CCCC1 (configuration not stated) [MDPV] | 5.18
Cc1nc2n(c(=O)c1CCN1CCC(c3noc4cc(F)ccc34)CC1)CCCC2 [Risperidone] | 5.88

Structure (SMILES) | LC retention time [min]
CCC(CO)NC(=O)C1C=C2c3cccc4[nH]cc(c34)CC2N(C)C1 (configuration not stated) [Ergometrine-Methyl] | 4.34
CC=CC(=O)Oc1c(C(C)CCCCCC)cc([N+](=O)[O-])cc1[N+](=O)[O-] (configuration not stated) [Dinocap] | 13.1
CON=C1CC2(CC3CC(CC=C(C)CC(C)C=CC=C4COC5C(O)C(C)=CC(C(=O)O3)C45O)O2)OC(C(C)=CC(C)C)C1C (configuration not stated) [Moxidectin] | 13.8
CC1(C)SC2C(NC(=O)COc3ccccc3)C(=O)N2C1C(=O)O (configuration not stated) [Penicillin V] | 6.8
CNC(C)CC1CCCCC1 (configuration not stated) [Levopropylhexedrine] | 5.74
CCN(CC)CCCN(c1ccccc1)C1Cc2ccccc2C1 [Aprindine] | 8.85
CN1CCN(c2c(F)cc3c(=O)c(C(=O)O)cn4c3c2OCN4C)CC1 [Marbofloxacin] | 4.18
CC(C)(C)C(O)C(Oc1ccc(Cl)cc1)n1cncn1 (configuration not stated) [Triadimenol] | 9.93
CC=C(C)C(=O)OC1CC(OC(C)=O)C2(C(=O)OC)COC3C2C12COC(O)(C(=O)OC)C2C(C)(C12OC1(C)C1CC2OC2OC=CC21O)C3O (configuration not stated) [Azadirachtin] | 7.56
CC(C)N(CCc1c[nH]c2ccccc12)C(C)C [DiPT] | 4.87
O=C(O)c1ccccc1C(=O)Nc1cccc2ccccc12 [Naptalam (N-1-Naphthylphthalamic acid)] | 6.75
CCCCOC(=O)c1ccccc1C(=O)OCCCC [Phthalate-Di-n-butyl] | 12
CN(C)C1C(=O)C(C(N)=O)=C(O)C2(O)C(=O)C3=C(O)c4c(O)cccc4C(C)(O)C3CC12 (configuration not stated) [Tetracycline] | 4.7
CCCS(=O)(=O)c1ccc2nc(NC(=O)OC)[nH]c2c1 [Albendazole sulfone] | 5.86
COC(=O)NC(=S)Nc1ccccc1NC(=S)NC(=O)OC [Thiophanate-methyl] | 6.93
CN(CCO)CC(O)Cn1cnc2c1c(=O)n(C)c(=O)n2C (configuration not stated) [Xanthinol] | 2.99
CCC(CO)NCCNC(CC)CO (configuration not stated) [Ethambutol] | 1.93
CCCC1C(=O)N2C(N(C)C)=Nc3ccc(C)cc3N2C1=O (configuration not stated) [Azapropazone] | 6.54
Cc1ccccc1C(=O)Nc1cccc(OC(C)C)c1 [Mepronil] | 9.62
